Results from patent US6992079B2, “Substituted 11-phenyl-dibenzazepine compounds useful for the treatment or prevention of diseases characterized by abnormal cell proliferation” (President Fellows of Harvard College, priority 1997, dated 2006).
Read-outs that look alike come from different tables or passages of the source. Marks after values point to notes of the source that are not given here.

Key:
[1] = tested on: panel of human cancer cells; test: In vitro screening, SRB, panel of 60 human cancer cell lines; type: cell-based
[2] = tested on: SK-MEL-2; test: In-Vitro Testing SRB panel: Melanoma; type: cell-based; settings: SK-MEL-2
[3] = tested on: KM12; test: In-Vitro Testing SRB panel: Colon Cancer; type: cell-based; settings: KM12
[4] = tested on: ROP-62; type: cell-based
[5] = tested on: HT29; test: In-Vitro Testing SRB panel: Colon Cancer; type: cell-based
[6] = tested on: MDA-MB-23; test: SRB antiproliferative assay; type: cell-based; settings: Homo sapiens; MDA-MB-23 (Breast); SRB; 5% FCS/5 day incubation; read-out: IC50
Description: (§1) The cells were passaged using Trypsin (Gibco).

[7] = tested on: MMRU; test: SRB antiproliferative assay; type: cell-based; settings: Homo sapiens, MMRU (Melanoma), 5% FCS/5 day incubation
Description: as §1

[8] = tested on: LOX IMVI; test: In-Vitro Testing SRB panel: Melanoma; type: cell-based
[9] = tested on: NCI-H23; type: cell-based; settings: NCI-H23
[10] = tested on: BT-549; test: In-Vitro Testing SRB panel: Breast Cancer; type: cell-based; settings: BT-549
[11] = tested on: K-562; test: In-Vitro Testing SRB panel: Leukemia; type: cell-based
[12] = tested on: M14; test: In-Vitro Testing SRB panel: Melanoma; type: cell-based; settings: M14
[13] = tested on: A498; test: In-Vitro Testing SRB panel: Renal Cancer; type: cell-based; settings: A498
[14] = tested on: SU.86.86 pancreatic adenocarcinoma; test: Mouse xenograft tumor growth; type: in vivo, nude mice; settings: SU.86.86 pancreatic adenocarcinoma mouse xenograft
[15] = tested on: ROP-92; type: cell-based
[16] = In-Vitro Testing SRB panel: Renal Cancer; type: cell-based
[17] = tested on: RXF 393; test: In-Vitro Testing SRB panel: Renal Cancer; type: cell-based; settings: RXF 393
[18] = Preliminary toxicology, subcutaneous injection for 14 days; type: in vivo, CD-1 female mice; settings: CD-1 female mice; 80 mg/kg/day s.c. 14 days
Description: The toxicological effects of CLT, and compounds 28, 30 and 31 were tested in CD-1 female mice. A dose of 80 mg/kg/day was given to each mouse via subcutaneous injection for a period of 14 days. Preliminary toxicological data was determined by measuring body weight, gross pathology of organs blood chemistry and histology. The vehicle used was DMF 12%+2% Tween 20 88%.

[19] = tested on: RPMI-8226; test: In-Vitro Testing SRB panel: Leukemia; type: cell-based; settings: RPMI-8226
[20] = Homo sapiens, read-out: LC50 (the source's name)

SMILES: COc1cccc2c1C(c1ccccc1Cl)c1cc(Cl)ccc1N(C(=O)c1ccc([N+](=O)[O-])cc1)C2 (stereo not shown) [Compound 31]
- activity against the human cell panel [1]: exhibited activity against the human cell panel
- GI50 ([2]; Homo sapiens): 79.3 µM
- CC50 [2, 20]: > 100 µM
- TGI [2]: >1.00E−04 Molar
- Percent Growth ([2]; log10 conc -4 Molar): 47%
- Percent Growth ([2]; log10 conc -5 Molar): 78%
- Percent Growth ([2]; log10 conc -6 Molar): 102%
- Percent Growth ([2]; log10 conc -7 Molar): 99%
- Percent Growth ([2]; log10 conc -8 Molar): 101%
- GI50 ([3]; Homo sapiens): 0.519 µM
- CC50 [3, 20]: > 100 µM
- TGI [3]: >1.00E−04 Molar
- Percent Growth ([3]; log10 conc -4 Molar): 20%
- Percent Growth ([3]; log10 conc -5 Molar): 32%
- Percent Growth ([3]; log10 conc -6 Molar): 38%
- Percent Growth ([3]; log10 conc -7 Molar): 80%
- Percent Growth ([3]; log10 conc -8 Molar): 99%
- GI50 ([4]; Homo sapiens): > 100 µM
- CC50 ([4]; Homo sapiens, ROP-62, read-out: LC50 (the source's name)): > 100 µM
- TGI ([4]; ROP-62): >1.00E−04 Molar
- Percent Growth ([4]; ROP-62, log10 conc -4 Molar): 50%
- Percent Growth ([4]; ROP-62, log10 conc -5 Molar): 79%
- Percent Growth ([4]; ROP-62, log10 conc -6 Molar): 88%
- Percent Growth ([4]; ROP-62, log10 conc -7 Molar): 105%
- Percent Growth ([4]; ROP-62, log10 conc -8 Molar): 100%
- TGI ([5]; HI29): >1.00E−04 Molar
- Percent Growth ([5]; HI29, log10 conc -4 Molar): 16%
- Percent Growth ([5]; HI29, log10 conc -5 Molar): 26%
- Percent Growth ([5]; HI29, log10 conc -6 Molar): 47%
- Percent Growth ([5]; HI29, log10 conc -7 Molar): 91%
- Percent Growth ([5]; HI29, log10 conc -8 Molar): 97%
- GI50 ([5]; Homo sapiens, HT-29): 0.866 µM
- CC50 ([5]; Homo sapiens, HT-29, HI29, read-out: LC50 (the source's name)): > 100 µM
- IC50 [6]: 0.4 µM
- IC50 [7]: 0.2 µM
- TGI [8]: >1.00E−04 Molar
- GI50 ([8]; Homo sapiens): 0.617 µM
- CC50 [8, 20]: > 100 µM
- Percent Growth ([8]; log10 conc -4 Molar): 13%
- Percent Growth ([8]; log10 conc -5 Molar): 12%
- Percent Growth ([8]; log10 conc -6 Molar): 39%
- Percent Growth ([8]; log10 conc -7 Molar): 93%
- Percent Growth ([8]; log10 conc -8 Molar): 97%
- GI50 ([9]; Homo sapiens): 2.65 µM
- CC50 [9, 20]: > 100 µM
- TGI [9]: >1.00E−04 Molar
- Percent Growth ([9]; log10 conc -4 Molar): 19%
- Percent Growth ([9]; log10 conc -5 Molar): 33%
- Percent Growth ([9]; log10 conc -6 Molar): 62%
- Percent Growth ([9]; log10 conc -7 Molar): 92%
- Percent Growth ([9]; log10 conc -8 Molar): 96%
- TGI [10]: >1.00E−04 Molar
- Percent Growth ([10]; log10 conc -4 Molar): 11%
- Percent Growth ([10]; log10 conc -5 Molar): 43%
- Percent Growth ([10]; log10 conc -6 Molar): 59%
- Percent Growth ([10]; log10 conc -7 Molar): 94%
- Percent Growth ([10]; log10 conc -8 Molar): 92%
- GI50 ([10]; Homo sapiens): 3.83 µM
- CC50 [10, 20]: > 100 µM
- GI50 ([11]; Homo sapiens, K562): 0.506 µM
- CC50 ([11]; Homo sapiens, K562, K-562, read-out: LC50 (the source's name)): > 100 µM
- TGI ([11]; K-562): >1.00E−04 Molar
- Percent Growth ([11]; K-562, log10 conc -4 Molar): 15%
- Percent Growth ([11]; K-562, log10 conc -5 Molar): 24%
- Percent Growth ([11]; K-562, log10 conc -6 Molar): 39%
- Percent Growth ([11]; K-562, log10 conc -7 Molar): 77%
- Percent Growth ([11]; K-562, log10 conc -8 Molar): 93%
- GI50 ([12]; Homo sapiens): 1.22 µM
- CC50 [12, 20]: > 100 µM
- TGI [12]: >1.00E−04 Molar
- Percent Growth ([12]; log10 conc -4 Molar): 21%
- Percent Growth ([12]; log10 conc -5 Molar): 30%
- Percent Growth ([12]; log10 conc -6 Molar): 52%
- Percent Growth ([12]; log10 conc -7 Molar): 93%
- Percent Growth ([12]; log10 conc -8 Molar): 92%
- TGI [13]: 6.86E−06 Molar
- Percent Growth ([13]; log10 conc -4 Molar): −32%
- Percent Growth ([13]; log10 conc -5 Molar): −11%
- Percent Growth ([13]; log10 conc -6 Molar): 55%
- Percent Growth ([13]; log10 conc -7 Molar): 93%
- Percent Growth ([13]; log10 conc -8 Molar): 93%
- GI50 ([13]; Homo sapiens): 1.19 µM
- CC50 [13, 20]: > 100 µM
- tumor growth [14]: showed inhibition of tumor growth
- GI50 ([15]; Homo sapiens): 5.53 µM
- CC50 ([15]; Homo sapiens, ROP-92, read-out: LC50 (the source's name)): > 100 µM
- TGI ([15]; ROP-92): >1.00E−04 Molar
- Percent Growth ([15]; ROP-92, log10 conc -4 Molar): 27%
- Percent Growth ([15]; ROP-92, log10 conc -5 Molar): 42%
- Percent Growth ([15]; ROP-92, log10 conc -6 Molar): 74%
- Percent Growth ([15]; ROP-92, log10 conc -7 Molar): 88%
- Percent Growth ([15]; ROP-92, log10 conc -8 Molar): 89%
- TGI ([16]; DO-31): >1.00E−04 Molar
- Percent Growth ([16]; DO-31, log10 conc -4 Molar): 1%
- Percent Growth ([16]; DO-31, log10 conc -5 Molar): 19%
- Percent Growth ([16]; DO-31, log10 conc -6 Molar): 61%
- Percent Growth ([16]; DO-31, log10 conc -7 Molar): 104%
- Percent Growth ([16]; DO-31, log10 conc -8 Molar): 94%
- GI50 ([16]; Homo sapiens): 1.82 µM
- CC50 ([16]; Homo sapiens, DO-31, read-out: LC50 (the source's name)): > 100 µM
- GI50 ([17]; Homo sapiens): 13.1 µM
- CC50 [17, 20]: > 100 µM
- TGI [17]: >1.00E−04 Molar
- Percent Growth ([17]; log10 conc -4 Molar): 39%
- Percent Growth ([17]; log10 conc -5 Molar): 52%
- Percent Growth ([17]; log10 conc -6 Molar): 81%
- Percent Growth ([17]; log10 conc -7 Molar): 96%
- Percent Growth ([17]; log10 conc -8 Molar): 96%
- Body Weight Change [18]: 113%
- Liver Weight [18]: 1.49 ± 0.04^c g
- RBC [18]: 8.6 ± 1.6 10^6/mm^3
- WBC [18]: 7.2 ± 1.7 10^3/mm^3
- WBC, RBC, BUN and creatine levels [18]: no differences were found
- GI50 ([19]; Homo sapiens): 0.327 µM
- CC50 [19, 20]: > 100 µM
- TGI [19]: >1.00E−04 Molar
- Percent Growth ([19]; log10 conc -4 Molar): 21%
- Percent Growth ([19]; log10 conc -5 Molar): 23%
- Percent Growth ([19]; log10 conc -6 Molar): 36%
- Percent Growth ([19]; log10 conc -7 Molar): 65%
- Percent Growth ([19]; log10 conc -8 Molar): 82%
